Laboratory results: patent publication US20090306373A1, “4,7-DIHYDROTHIENO[2,3-B]PYRIDINE COMPOUNDS AND PHARMACEUTICAL COMPOSITIONS” (priority 2005, published 2009)

What follows are molecules tested on alpha-MyHC (assay: alpha-MyHC cytoblot in neonatal rat ventricular myocytes (NRVM)). Conditions: Rattus norvegicus, Ventricular myocyte, Table 1, 72 hours, concentration giving 50% of maximum response.
Format: cell-based
Method: In vitro activity of each compound is measured using the alpha-MyHC cytoblot process. Briefly, neonatal rat ventricular myocytes (NRVM) at 120,000 cells/ml in HyQ DME/High modified culture media supplemented with 10% charcoal/dextran treated FBS, 0.1% Nutridoma-SP, 1:100 MEM non-essential amino acids, 1:50 MEM amino acids solution w/o L-Gln, 1 mM sodium pyruvate and 1:100 P/S/G, are plated on gelatin coated sterile 384-well plates (Costar 3712) at 6,000 cells per well. Cells are incubated overnight at 37° C. in 5% CO2 100% humidity. Following overnight growth the media is changed to HyQ DME/High modified culture media supplemented with 0.3% Nutridoma-SP, 1:100 MEM non-essential amino acids, 1:50 MEM amino acids solution w/o L-Gln, 1 mM sodium pyruvate and 1:100 P/S/G. Cells are then dosed with serial dilutions of each compound in DMSO. Each concentration in the dose range is dosed in quadruplicate. Dosing is done in such a way so that the final DMSO concentration was 0.44%. Compound dilutions are 3-fold with the final top concentration of 10 uM. […] Following dosing, the cells are incubated for 72 hours at 37° C. in 5% CO2 100% humidity and then processed with the cytoblot method. Briefly, cell media is aspirated and cell monolayers washed with PBS and fixed with 100% methanol for 30 minutes. Fixed cells are then blocked with PBS, 0.05% Tween-20, 1% BSA, for 1 hour. Following blocking, cells are incubated with primary alpha-MyHC-specific antibody (1:30 dilution of BA-G5 hybridoma conditioned media, ATCC HB276) for 1 hour. Following incubation with the primary antibody, cells are washed with PBS, 0.05% Tween-20, 1% BSA and incubated with secondary antibody (1:1000 dilution, goat-anti-mouse HRP, Southern Biotech, 1031-05) for 1 hour. Following incubation with the secondary antibody, wells are washed and incubated in SuperSignal, West Dura HRP-luminescence substrate for 30 seconds under shaking at room temperature. Luminescence is measured using a Packard Fusion plate reader. […] RLU values are converted into percent fraction of low control and dose responses are fitted to a sigmoidal 4-parameter equation (XLFit, IDBS) where the EC50 and Max Plateau values were extracted. […] Max Plateau is the […] maximum value determined by the dose response fit.

SMILES	EC50
CC(=O)C1=C(C)Nc2sc(C(=O)c3cccc([N+](=O)[O-])c3)c(N)c2C1c1ccccc1Cl (centres unmarked) [Compound 4, 1-[3-amino-4-(2-chloro-phenyl)-6-methyl-2-(3-nitro-benzoyl)-4,7-dihydro-thieno[2,3-b]pyridin-5-yl]-ethanone]	85.7 nM

Same assay, conditions: Table 1, 72 hours, fitted maximum, percent fraction of low control (vehicle), in %

SMILES	Max Plateau
CCC(=O)C1=C(CC)Nc2sc(C(=O)c3ccc(Cl)c(Cl)c3)c(N)c2C1c1ccccc1C(F)(F)F (centres unmarked) [Compound 60]	100.00 ± 0.00
CCC(=O)C1=C(CC)Nc2sc(C(=O)c3cccc([N+](=O)[O-])c3)c(N)c2C1c1ccccc1 (centres unmarked) [Compound 96]	254.87 ± 72.67
CC(=O)C1=C(C)Nc2sc(C(=O)c3ccccc3)c(N)c2C1c1ccncc1 (centres unmarked) [Compound 19]	260.00 ± 36.06
CCC(=O)C1=C(CC)Nc2sc(C(=O)c3ccc(Cl)c(Cl)c3)c(N)c2C1c1cccc([N+](=O)[O-])c1 (centres unmarked) [Compound 58]	232.20 ± 56.57
CCC(=O)C1=C(CC)Nc2sc(C(=O)c3cccc(Cl)c3)c(N)c2C1c1ccccc1 (centres unmarked) [Compound 66]	306.19 ± 54.21
CCC(=O)C1=C(CC)Nc2sc(C(=O)c3cc(F)cc(F)c3)c(N)c2C1c1ccccc1 (centres unmarked) [Compound 76]	230.70 ± 23.22
CCC(=O)C1=C(CC)Nc2sc(C(=O)c3ccc(Cl)c(Cl)c3)c(N)c2C1c1cccc(Cl)c1 (centres unmarked) [Compound 54]	267.44 ± 32.29
CC(=O)C1=C(C)Nc2sc(C(=O)c3ccc(Cl)c(Cl)c3)c(N)c2C1c1ccc[nH]1 (centres unmarked) [Compound 42]	160.56 ± 20.02
CCC(=O)C1=C(CC)Nc2sc(C(=O)c3ccccc3Br)c(N)c2C1c1ccccc1 (centres unmarked) [Compound 106]	244.21 ± 29.53
CCC(=O)C1=C(CC)Nc2sc(C(=O)c3ccc(Cl)c(Cl)c3)c(N)c2C1c1ccccc1[N+](=O)[O-] (centres unmarked) [Compound 59]	152.77 ± 11.42
CCC(=O)C1=C(CC)Nc2sc(C(=O)c3ccccc3)c(N)c2C1c1cc(F)cc(F)c1 (centres unmarked) [Compound 105]	273.18 ± 37.33
CC(=O)C1=C(C)Nc2sc(C(=O)c3ccccn3)c(N)c2C1c1ccccc1 (centres unmarked) [Compound 16]	163.33 ± 32.15
CCC(=O)C1=C(CC)Nc2sc(C(=O)c3ccc(Cl)c(Cl)c3)c(N)c2C1c1ccc(OC)cc1F (centres unmarked) [Compound 81]	184.00 ± 15.51
CCC(=O)C1=C(CC)Nc2sc(C(=O)c3ccc(Cl)cc3Cl)c(N)c2C1c1ccccc1 (centres unmarked) [Compound 70]	191.97 ± 13.09
CC(=O)C1=C(C)Nc2sc(C(=O)c3ccc(Cl)c(Cl)c3)c(N)c2C1c1ccc(O)cc1Cl (centres unmarked) [Compound 29]	281.88 ± 32.78
CCCC(=O)C1=C(CCC)Nc2sc(C(=O)c3cc(Cl)ccc3Cl)c(N)c2C1c1ccccc1F (centres unmarked) [Compound 92]	189.00 ± 25.40
CC(=O)C1=C(C)Nc2sc(C(=O)c3ccc(C)c(C)c3)c(N)c2C1c1ccccc1 (centres unmarked) [Compound 8]	172.29 ± 9.66
CCC(=O)C1=C(CC)Nc2sc(C(=O)c3ccc(Cl)c(Cl)c3)c(N)c2C1c1c(F)cccc1Cl (centres unmarked) [Compound 40]	244.87 ± 7.92

SMILES	Max Plateau
CC(=O)C1=C(C)Nc2sc(C(=O)c3ccc(Cl)c(Cl)c3)c(N)c2C1c1ccccc1O (centres unmarked) [Compound 34]	184.69 ± 15.76
CC(=O)C1=C(C)Nc2sc(C(=O)c3ccccc3)c(N)c2C1c1cccnc1 (centres unmarked) [Compound 20]	127.35 ± 23.71
CC(=O)C1=C(C)Nc2sc(C(=O)c3ccccc3)c(N)c2C1c1ccc(C(F)(F)F)cc1 (centres unmarked) [Compound 44]	186.67 ± 11.55
Nc1c(C(=O)c2ccccc2)sc2c1C(c1ccccc1)C(C(=O)c1ccccc1)=C(c1ccccc1)N2 (centres unmarked) [Compound 30]	100.00 ± 0.00
CCC(=O)C1=C(CC)Nc2sc(C(=O)c3ccccc3Cl)c(N)c2C1c1ccccc1 (centres unmarked) [Compound 82]	245.96 ± 30.73
CCC(=O)C1=C(CC)Nc2sc(C(=O)c3ccc(Cl)c(Cl)c3)c(N)c2C1c1ccc2ccccc2c1 (centres unmarked) [Compound 88]	113.45 ± 11.92
CC(=O)C1=C(C)Nc2sc(C(=O)c3ccncc3)c(N)c2C1c1ccccc1 (centres unmarked) [Compound 10]	210.00 ± 36.06
CC(=O)C1=C(C)Nc2sc(C(=O)c3ccc(Cl)c(Cl)c3)c(N)c2C1c1ccc(O)cc1 (centres unmarked) [Compound 23]	277.53 ± 33.46
CC(=O)C1=C(C)Nc2sc(C(=O)c3ccc(Cl)c(Cl)c3)c(N)c2C1c1cc(F)cc(F)c1 (centres unmarked) [Compound 55]	229.93 ± 37.33
CCC(=O)C1=C(CC)Nc2sc(C(=O)c3ccc(Cl)c(Cl)c3)c(N)c2C1c1cccc2ccccc12 (centres unmarked) [Compound 85]	105.90 ± 6.18
CCC(=O)C1=C(CC)Nc2sc(C(=O)c3ccc(Cl)c(Cl)c3)c(N)c2C1c1cc(F)cc(F)c1 (centres unmarked) [Compound 100]	262.04 ± 31.65
CCC(=O)C1=C(CC)Nc2sc(C(=O)c3ccc(Cl)c(Cl)c3)c(N)c2C1c1ccccc1Cl (centres unmarked) [Compound 53]	259.43 ± 26.30
CCCC(=O)C1=C(CCC)Nc2sc(C(=O)c3ccc(Cl)cc3Cl)c(N)c2C1c1ccccc1F (centres unmarked) [Compound 91]	143.39 ± 20.69
CCC(=O)C1=C(CC)Nc2sc(C(=O)c3cccc(F)c3)c(N)c2C1c1ccccc1 (centres unmarked) [Compound 49]	299.18 ± 42.31
CC(=O)C1=C(C)Nc2sc(C(=O)c3ccc(Cl)c(Cl)c3)c(N)c2C1c1ccc(C(C)(C)C)cc1 (centres unmarked) [Compound 32]	100.00 ± 0.00
CCC(=O)C1=C(CC)Nc2sc(C(=O)c3cccc(C(=O)OC)c3)c(N)c2C1c1ccccc1 (centres unmarked) [Compound 74]	262.81 ± 32.38
CC(=O)C1=C(C)Nc2sc(C(=O)c3cccc(F)c3)c(N)c2C1c1ccccc1 (centres unmarked) [Compound 61]	230.65 ± 55.61

Same assay, conditions: Table 2, 72 hours, fitted maximum, percent fraction of low control (vehicle), in %

SMILES	Max Plateau
CCC1=C(C(=O)OC)C(c2c(F)cccc2F)c2c(sc(C(=O)c3cccc([N+](=O)[O-])c3)c2N)N1 (centres unmarked) [Compound 141]	261.69
CCOC(=O)C1=C(CC)Nc2sc(C(=O)c3cc(Cl)ccc3Cl)c(N)c2C1c1ccccc1 (centres unmarked) [Compound 146]	213.49
CCC1=C(C(=O)OC)C(c2ccnc(F)c2)c2c(sc(C(=O)c3cccc(Cl)c3)c2N)N1 (racemic) [Compound 175]	289.91
CCC1=C(C(=O)OC)C(c2ccccc2F)c2c(sc(C(=O)c3cccc(C#N)c3)c2N)N1 (centres unmarked) [Compound 164]	279.90
COCC1=C(C(=O)OC)C(c2ccccc2)c2c(sc(C(=O)c3ccc(Cl)c(Cl)c3)c2N)N1 (centres unmarked) [Compound 120]	140.79
CCC1=C(C(=O)OC)C(c2cccc(Cl)c2F)c2c(sc(C(=O)c3cccc([N+](=O)[O-])c3)c2N)N1 (centres unmarked) [Compound 156]	243.78
CCC1=C(C(=O)OC(C)CC)C(c2ccccc2F)c2c(sc(C(=O)c3ccc(Cl)c(Cl)c3)c2N)N1 (single isomer, unassigned) [Compound 162]	183.22
CCC1=C(C(=O)OC)C(c2cc(F)cc(F)c2)c2c(sc(C(=O)c3ccccc3)c2N)N1 (centres unmarked) [Compound 172]	304.08
CCOC(=O)C1=C(CC)Nc2sc(C(=O)c3ccc(Cl)cc3Cl)c(N)c2C1c1ccccc1 (centres unmarked) [Compound 145]	224.48
CCOC(=O)C1=C(CC)Nc2sc(C(=O)c3cc(F)cc(F)c3)c(N)c2C1c1ccccc1 (centres unmarked) [Compound 151]	273.61
CCOC(=O)C1=C(CC)Nc2sc(C(=O)c3cccc(C(=O)O)c3)c(N)c2C1c1ccccc1 (centres unmarked) [Compound 152]	238.69
